Source: PMC8950868, “Identifying Human PTP1B Enzyme Inhibitors from Marine Natural Products: Perspectives for Developing of Novel Insulin-Mimetic Drugs” (Pharmaceuticals, 2022)
One block for each compound: values may come before it.

Columns and labels:
[1] = molecular target: T1, human recombinant PTP1B (1–302) (Homo sapiens, UniProt P18031); assay: PTP1B enzymatic assay (p-NPP hydrolysis; preliminary screening and IC50); format: biochemical; settings: for Effect on PTP1B activity in preliminary screening: 20 µM of each compound, 30 min; for IC50: 2.5 mM p-NPP, pH 7.0, 37 °C, mean ± SD (n = 3), read-out: IC50 values determined on PTP1B
T1 construct: human recombinant PTP1B (1–302)
T1 sequence (P18031 1-302): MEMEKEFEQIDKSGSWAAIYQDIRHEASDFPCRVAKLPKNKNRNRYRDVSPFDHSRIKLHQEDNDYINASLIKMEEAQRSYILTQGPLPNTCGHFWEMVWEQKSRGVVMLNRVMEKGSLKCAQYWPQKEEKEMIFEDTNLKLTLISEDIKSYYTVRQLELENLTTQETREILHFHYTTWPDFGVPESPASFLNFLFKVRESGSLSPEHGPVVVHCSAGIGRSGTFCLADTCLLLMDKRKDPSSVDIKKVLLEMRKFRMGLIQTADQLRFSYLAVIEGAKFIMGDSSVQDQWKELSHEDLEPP
Protocol: We performed enzymatic assays as previously described. For each assay, an aliquot of human recombinant PTP1B (1–302) was added in the assay buffer (0.075 M β,β-dimethylglutarate pH 7.0 containing 1 mM EDTA, 0.1 mM DTT and a p-nitrophenylphosphate (p-NPP) (Chemcruz, Santa Cruz Biotechnology (Santa Cruz, CA, USA)). The reactions were performed at 37 °C in a final volume of 1 mL. After adequate time (30 min) of incubation, the reactions were stopped adding 2 mL of 0.1 M KOH in each sample. The released amount of p-nitrophenol, product of the reaction, was determined by measuring the absorbance at 400 nm in a 1 cm pathlength cuvette.
The IC50 value of compounds against PTP1B was determined by measuring the hydrolysis rate of the enzyme in the presence of a fixed substrate concentration (2.5 mM p-NPP) and increasing inhibitor concentrations (generally 14–16 different concentrations). Each test was carried out in triplicate. Experimental data were normalized respect to control samples and then fitted using a non-linear fitting software, using the following equation: Vi/V0=Max−Min/1+x/IC50^slope+Min where the Vi/V0 value represents the relative activity calculated in presence of each inhibitor concentration; the maximum and minimum value of the activity are represented by “Max” and “Min”, respectively; “x” is the concentration of the inhibitor; IC50 is the inhibitor concentration able to decrease the enzymatic activity up to 50%; “slope” represents the slope of the curve in the transition zone.
Figure 2 Preliminary screening assay on PTP1B. All assays were started by diluting an aliquot of PTP1B in the assay solution containing substrate alone (control test) or substrate and an aliquot of each compound (20 µM, final concentration). After 30 min, the reactions were stopped by adding a concentrated KOH solution. The enzyme activity was determined by measuring the amount of p-nitrophenol that was released in each sample using a spectrophotometer. Data obtained were normalized respect to control sample. […] Statistical analysis was carried out using one way ANOVA followed by Tukey’s HSD test for pairwise comparisons. Statistics have been drawn on raw data and compare samples to control (Ctr). * p < 0.05; ** p < 0.01.
Figure 3 Determination of the IC50 values with compounds 3, 8a, 8b, 9a and 9b. An aliquot of PTP1B enzyme was diluted in the presence of increasing concentration of the compounds. The activity of PTP1B was determined by measuring the absorbance of the sample at 400 nm, using a spectrophotometer. Data obtained were normalized respect to the control sample and analysed using a non-linear fitting software.

human recombinant AR = molecular target: T2, human recombinant AR (Homo sapiens, UniProt P15121); assay: AR enzymatic assay (NADPH oxidation, L-idose substrate); format: biochemical; settings: for remaining activity at 43 µM: 43 µM (maximal concentration used); for % residual activity of human AR / remaining activity at 210 µM: 210 µM (maximal concentration used); for % residual activity of human AR: 210 µM
T2 construct: made in house
Protocol: The human recombinant AR, purified to electrophoretic homogeneity as described, was used as target enzyme. AR activity was determined at 37 °C as previously described by evaluating the decrease in absorbance at 340 nm linked to NADPH oxidation using a Biochrom Libra S60 spectrophotometer. The standard assay mixture contained 0.25 M sodium phosphate buffer pH 6.8, 0.18 mM NADPH, 0.42 M ammonium sulfate, 0.5 mM EDTA and 4.7 mM D,L-glyceraldehyde. One unit of enzyme activity is the amount that catalyses the conversion of 1 µmol of substrate/min in the above assay conditions. For AR inhibition studies, 0.8 mM L-idose was used as substrate in the conditions described above, in the presence of 10 mU of enzyme and of a final concentration of DMSO of 0.7% (v/v).

AR = tested on: AR; parameters: method as in PMID 34677434; settings: cited from earlier work
PTP1B = tested on: PTP1B; parameters: method as in PMID 34677434; settings: cited from earlier work
HepG2 cells = tested on: HepG2 cells; parameters: method as in PMID 34677434; settings: cited from earlier work
GST–PTP1B fusion protein = tested on: GST–PTP1B fusion protein; parameters: method as in PMID 27064611; settings: different pH value, read-out: IC50 on PTP1B previously determined; cited from earlier work
[2] = read-out: % residual activity of human AR

SMILES: CCCCC[C@H](O)[C@H](O)CC[C@H](CCCC)OC(C)=O (relative stereo) [Compound 7b]
Effect on PTP1B activity in preliminary screening [1]: loss of activity

SMILES: CCCCC[C@H](O)[C@@H](CC[C@H](CCCC)OC(C)=O)OP(=O)(O)O (relative stereo) [Compound 9b]
% residual activity of human AR (human recombinant AR): 74 ± 6%
remaining activity at 210 µM (human recombinant AR; [2]): 77%
Effect on PTP1B activity in preliminary screening [1]: reducing PTP1B activity
IC50 [1]: 63 ± 14 µM

SMILES: CCCCC[C@@H](O)[C@H](CC[C@H](CCCC)OC(C)=O)OP(=O)(O)O (relative stereo) [Compound 9a]
remaining activity at 107 µM (human recombinant AR; 107 µM (maximal concentration used), read-out: % residual activity of human AR): 86 ± 2%
Effect on PTP1B activity in preliminary screening [1]: reducing PTP1B activity
IC50 [1]: 83 ± 15 µM

SMILES: CCCCC[C@H](OP(=O)(O)O)[C@H](O)CC[C@H](CCCC)OC(C)=O (relative stereo) [Compound 8b]
% residual activity of human AR (human recombinant AR): 74 ± 8%
remaining activity at 210 µM (human recombinant AR; [2]): 76%
Effect on PTP1B activity in preliminary screening [1]: reducing PTP1B activity
IC50 [1]: 37.1 ± 6.5 µM

Further lines, with some results ahead:

remaining activity at 43 µM (human recombinant AR; [2]): 98 ± 3%
Effect on PTP1B activity in preliminary screening [1]: loss of activity
SMILES: CCCCC[C@H](O)[C@H](O)CC[C@@H](O)CCCC [Compound 4b, (5S,8R,9S)-tetradecane-5,8,9-triol]

IC50 [1]: 0.7 ± 0.1 µM
SMILES: CCCCCCCCCCCCCCC(OP(=O)(O)O)C(O)CCC(O)C(O)CCC(O)CCCCCCC(=O)NCC(=O)O (stereo not shown) [Phosphoeleganin, phosphoeleganin]
Type of AR inhibition (AR): mixed-type inhibitor
Type of PTP1B inhibition (PTP1B): pure non-competitive inhibitor
Activity in HepG2 cells (HepG2 cells): insulin-sensitizing activity
IC50 (GST–PTP1B fusion protein): 11 ± 2 µM

remaining activity at 43 µM (human recombinant AR; [2]): 97 ± 4%
Effect on PTP1B activity in preliminary screening [1]: loss of activity
SMILES: CCCCC[C@@H](O)[C@@H](O)CC[C@@H](O)CCCC [Compound 4a, (5S,8S,9R)-tetradecane-5,8,9-triol]

AR inhibition (in words) (human recombinant AR): ineffective
remaining activity at 71 µM (human recombinant AR; 71 µM (maximal concentration used), read-out: % residual activity of human AR): 103 ± 4%
Effect on PTP1B activity in preliminary screening [1]: loss of activity
SMILES: O=C(O)CNC(=O)CCCCCC[C@H](O)CCCO [Compound 2]

Effect on PTP1B activity in preliminary screening [1]: loss of activity
SMILES: CCCCC[C@@H](O)[C@@H](O)CC[C@H](CCCC)OC(C)=O (relative stereo) [Compound 7a]
